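Where inhibition never reached the appropriate level, the endpoint shown equals the highest concentration tested. Otherwise, values were interpolated linearly from a five-concentration, 48-hour dose response in 96-well plates. At the TGI there is no net growth.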
Columns and labels:
Assay in all cases: NCI tumour cell line growth inhibition, 48 h
CAKI-1 renal = tested on: CAKI-1 renal
CCRF-CEM leukemia = tested on: CCRF-CEM leukemia
EKVX NSCLC = tested on: EKVX NSCLC
HCT-116 colon = tested on: HCT-116 colon
HOP-62 NSCLC = tested on: HOP-62 NSCLC
K-562 leukemia = tested on: K-562 leukemia
M14 melanoma = tested on: M14 melanoma
MALME-3M melanoma = tested on: MALME-3M melanoma
MOLT-4 leukemia = tested on: MOLT-4 leukemia
OVCAR-5 ovarian = tested on: OVCAR-5 ovarian
OVCAR-8 ovarian = tested on: OVCAR-8 ovarian
SNB-19 CNS = tested on: SNB-19 CNS
SNB-75 CNS = tested on: SNB-75 CNS
TK-10 renal = tested on: TK-10 renal
UACC-257 melanoma = tested on: UACC-257 melanoma
MDA-MB-231 breast = tested on: MDA-MB-231 breast
MDA-N = tested on: MDA-N
HS 578T breast = tested on: HS 578T breast
T-47D breast = tested on: T-47D breast

Compound	TGI (CAKI-1 renal)	TGI (CCRF-CEM leukemia)	TGI (EKVX NSCLC)	TGI (HCT-116 colon)	TGI (HOP-62 NSCLC)	TGI (K-562 leukemia)	TGI (M14 melanoma)	TGI (MALME-3M melanoma)	TGI (MOLT-4 leukemia)	TGI (OVCAR-5 ovarian)	TGI (OVCAR-8 ovarian)	TGI (SNB-19 CNS)	TGI (SNB-75 CNS)	TGI (TK-10 renal)	TGI (UACC-257 melanoma)	TGI (MDA-MB-231 breast)	TGI (MDA-N)	TGI (HS 578T breast)	TGI (T-47D breast)
CC1=NN(c2ccccc2)C(=O)C1=C1SCCS1	> 100 µM	> 65.5 µM	> 100 µM	> 64.6 µM	> 100 µM	> 69.1 µM	> 100 µM	> 100 µM	> 100 µM	> 100 µM	> 100 µM	> 100 µM	> 100 µM	> 100 µM	> 100 µM				
CC(=O)c1cccc(NC(=O)/C(=N\NC(C)(C)C)c2c(O)c3ccccc3oc2=O)c1	> 100 µM	> 100 µM	> 100 µM	> 100 µM	> 100 µM		> 100 µM	> 100 µM	> 100 µM		> 100 µM	> 100 µM	> 100 µM	> 100 µM	> 100 µM				
CN(C)c1ccc(-c2cc(=O)c3cc4c(cc3[nH]2)OCO4)cc1		> 100 µM	> 100 µM	> 100 µM	> 100 µM	> 100 µM	> 100 µM	> 100 µM	> 100 µM		> 100 µM	> 100 µM	> 100 µM	> 100 µM	> 100 µM				
COc1ccc2c(c1)c(=O)c1ccccc1n2/C=C/C(=O)O	> 100 µM	> 67.8 µM	> 100 µM	> 100 µM	> 100 µM	> 100 µM	> 100 µM	> 100 µM	> 100 µM	> 100 µM	> 100 µM	> 100 µM	> 100 µM	> 100 µM	> 100 µM				
C/C=C(C)/C=C/CC(C)CCC=C(C)C (stereo unspecified)	> 100 µM	> 100 µM	> 100 µM	> 100 µM		> 100 µM	> 100 µM		> 100 µM	> 100 µM	> 100 µM	> 100 µM	> 100 µM	> 100 µM	> 100 µM	> 100 µM	> 100 µM		
Cc1ccc(S(=O)(=O)N2CCN(S(=O)(=O)c3ccc(C)cc3)Cc3ccccc3C2)cc1	> 100 µM	> 100 µM	> 100 µM	> 100 µM	51.5 µM	> 100 µM	> 100 µM	> 100 µM	> 100 µM		> 100 µM	> 100 µM		> 100 µM	> 100 µM	> 100 µM		96.5 µM	> 100 µM
CCCN(CCCCC(NC(C)=O)C(=O)NCc1ccccc1)C(=O)N(C)N=O (stereo unspecified)	> 100 µM	> 100 µM	> 100 µM	> 100 µM	> 100 µM	> 100 µM	> 100 µM	> 100 µM	> 100 µM	> 100 µM	> 100 µM	> 100 µM	> 100 µM	> 100 µM	> 100 µM				
COc1ccc(C[C@@H]2Cc3cc(OC)c(OC)cc3CN2C)cc1	> 100 µM	> 100 µM	> 100 µM		> 100 µM	> 100 µM	> 100 µM	> 100 µM	> 100 µM	> 100 µM	> 100 µM	> 100 µM	> 100 µM	> 100 µM	> 100 µM				
COc1cccc2c1CCc1ccccc1CC2=O	> 100 µM	> 100 µM	> 100 µM	> 100 µM		> 100 µM	> 100 µM	> 100 µM	> 100 µM	> 100 µM	> 100 µM	> 100 µM	> 100 µM	> 100 µM	> 100 µM				
COc1ccc(N2C(=O)C3c4[nH]c5ccc(OC)cc5c4C4CCC(C(C)(C)C)CC4C3C2=O)cc1 (stereo unspecified)	> 100 µM	> 100 µM	92.3 µM	26.1 µM	52.5 µM	> 100 µM	> 100 µM	58 µM	> 100 µM	> 100 µM	> 100 µM	> 100 µM	35.6 µM	> 100 µM	> 100 µM				
O=S1(=O)OCCOS(=O)(=O)C1I	> 100 µM	> 100 µM	> 100 µM	> 100 µM	> 100 µM	> 100 µM	> 100 µM	> 100 µM	> 100 µM		> 100 µM	> 100 µM	> 100 µM	> 100 µM	> 100 µM				
CCOC(=O)Cc1nnc2c(-c3ccccc3)nc3ccccc3n12		> 100 µM	79.8 µM	> 100 µM	27.6 µM	> 100 µM	> 100 µM	> 100 µM	> 100 µM	> 100 µM		62.1 µM		> 100 µM	> 100 µM	45.3 µM	> 100 µM		
N#Cc1c2ccc([N+](=O)[O-])cc2c(=O)n2c1sc1ccc(C(F)(F)F)cc12	> 100 µM		> 100 µM	> 100 µM	> 100 µM	> 100 µM	> 100 µM	> 100 µM	> 100 µM	> 100 µM	> 100 µM	> 100 µM	> 100 µM	> 100 µM	> 100 µM	> 100 µM			> 100 µM
COc1cc(C2=NN(C)C(c3ccc([N+](=O)[O-])o3)C2)cc(OC)c1OC (stereo unspecified)	> 100 µM	72 µM	> 100 µM	> 100 µM	> 100 µM	> 100 µM	> 100 µM	> 100 µM	> 100 µM	> 100 µM	> 100 µM	> 100 µM	> 100 µM	> 100 µM	> 100 µM				
CCCCCCCC1(N=[N+]=[N-])C(=O)c2ccccc2N(C)C1=O (stereo unspecified)	> 100 µM	> 100 µM	> 100 µM	> 100 µM	> 100 µM		> 100 µM	> 100 µM	> 100 µM	> 100 µM	> 100 µM	> 100 µM	> 100 µM	> 100 µM	> 100 µM	> 100 µM		> 100 µM	> 100 µM
